The values that follow come from PubChem BioAssay (NCI).

Test systems include 786-0 renal; MALME-3M melanoma; A498 renal; HOP-62 NSCLC; M14 melanoma; OVCAR-5 ovarian; MOLT-4 leukemia; SF-295 CNS; SK-OV-3 ovarian; RPMI-8226 leukemia.
What all share (assay): growth of human tumour cells (NCI), 48 h

Molecules are shown by their SMILES.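 Assay format: 96-well plates, 48-hour exposure. GI50 = concentration required for 50% inhibition of growth. TGI is the concentration that stops growth completely.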

Regarding `COC(=O)c1nc(C(=O)OC)c2c([nH]c3ccccc32)c1C(=O)OC`, the TGI in the assay with 786-0 renal, with MALME-3M melanoma, in the assay with A498 renal, in the assay on HOP-62 NSCLC, in the assay on M14 melanoma and in the assay with OVCAR-5 ovarian was > 100 µM throughout. Further, the TGI in the assay with MOLT-4 leukemia and in the assay with SF-295 CNS was > 100 µM in each case.

Turning to `CC(=O)SC(SC(C)=O)SC(C)=O`, the TGI in the assay on 786-0 renal, with SK-OV-3 ovarian, in the assay with MALME-3M melanoma, in the assay on A498 renal, with HOP-62 NSCLC and in the assay on M14 melanoma was > 100 µM each time. Besides, the TGI with OVCAR-5 ovarian and with MOLT-4 leukemia was > 100 µM each time.

In the case of `N#Cc1c2ccccc2c2nnc3ccc(C(F)(F)F)cc3n12`, the GI50 in the assay with 786-0 renal was > 100 µM; in the assay on SK-OV-3 ovarian, 89.9 µM; in the assay on RPMI-8226 leukemia, 29.4 µM; in the assay on MALME-3M melanoma, 47.9 µM; in the assay with HOP-62 NSCLC, > 100 µM; with MOLT-4 leukemia, 10.4 µM. The GI50 with SF-295 CNS is 42.7 µM. The TGI in the assay on 786-0 renal, in the assay with SK-OV-3 ovarian, with RPMI-8226 leukemia, in the assay on MALME-3M melanoma, with HOP-62 NSCLC and in the assay with MOLT-4 leukemia was > 100 µM each time. Besides, the TGI in the assay on SF-295 CNS was > 100 µM.

Turning to `N#Cc1c2ccccc2c2nnc3ccccc3n12`, the GI50 with 786-0 renal was 53.2 µM; in the assay on SK-OV-3 ovarian, > 100 µM; in the assay with RPMI-8226 leukemia, > 100 µM; in the assay on MALME-3M melanoma, > 100 µM; with HOP-62 NSCLC, 24.4 µM; with M14 melanoma, 14.9 µM. For the same compound, the GI50 in the assay on MOLT-4 leukemia was 47.1 µM; with SF-295 CNS, 49 µM. For the same compound, the TGI in the assay with 786-0 renal is > 100 µM; in the assay with SK-OV-3 ovarian, > 100 µM; with RPMI-8226 leukemia it was > 100 µM; in the assay on MALME-3M melanoma, > 100 µM; with HOP-62 NSCLC, 60.1 µM; in the assay on M14 melanoma it was 62.4 µM. Further, the TGI in the assay on MOLT-4 leukemia and in the assay with SF-295 CNS was > 100 µM each time.

With `CCC(C)CC(C)C(=O)c1c(O)ccn(O)c1=O` (stereo not given), the GI50 is 3.65 µM with 786-0 renal; 6.2 µM in the assay with SK-OV-3 ovarian; 0.901 µM with RPMI-8226 leukemia; 1.44 µM with MALME-3M melanoma; 1.98 µM in the assay with HOP-62 NSCLC; 1.61 µM in the assay with M14 melanoma. For the same compound, the GI50 in the assay on OVCAR-5 ovarian is 23.7 µM; with MOLT-4 leukemia it was 1.06 µM; in the assay with SF-295 CNS it was 5.22 µM. Besides, the TGI was > 100 µM in the assay on 786-0 renal; > 100 µM in the assay with SK-OV-3 ovarian; 36.8 µM with RPMI-8226 leukemia; 10.1 µM in the assay on MALME-3M melanoma; > 100 µM with HOP-62 NSCLC; 15 µM with M14 melanoma. For the same compound, the figures for the TGI with OVCAR-5 ovarian, in the assay with MOLT-4 leukemia and in the assay with SF-295 CNS were > 100 µM, 17.6 µM and 49.6 µM, respectively.

For `C=C(COC(C)=O)CC(/C=C(\C)CC/C=C(\C)CO)OC(C)=O` (stereo not given), the TGI with 786-0 renal, with SK-OV-3 ovarian, with A498 renal, in the assay with HOP-62 NSCLC, in the assay on M14 melanoma and in the assay with OVCAR-5 ovarian was > 100 µM throughout. The TGI in the assay on MOLT-4 leukemia and with SF-295 CNS was > 100 µM in each case.

Turning to `CC1CCC2CC1NC(=O)CCOCCC(=O)NC2(C)C` (stereo not given), the TGI in the assay with 786-0 renal, with SK-OV-3 ovarian, in the assay on HOP-62 NSCLC, with M14 melanoma, in the assay with OVCAR-5 ovarian and in the assay on MOLT-4 leukemia was > 100 µM in each case. Also, the TGI with SF-295 CNS is > 100 µM.

Consider `CC1=NC=C(O)c2ccccc2O1`, for which the TGI with 786-0 renal, in the assay with SK-OV-3 ovarian, with RPMI-8226 leukemia, in the assay with MALME-3M melanoma, in the assay on A498 renal and in the assay on HOP-62 NSCLC was > 100 µM in each case. Also, the TGI in the assay with M14 melanoma, in the assay on MOLT-4 leukemia and in the assay on SF-295 CNS was > 100 µM in each case.

With `COc1cc(C2C(C(=O)O)=C(COC(C)=O)Oc3cc4c(cc32)OCO4)cc(OC)c1OC(C)=O` (stereo not given), the TGI in the assay with 786-0 renal, with SK-OV-3 ovarian, in the assay on RPMI-8226 leukemia, with MALME-3M melanoma, in the assay on HOP-62 NSCLC and in the assay on M14 melanoma was > 100 µM each time. Besides, the TGI with MOLT-4 leukemia and with SF-295 CNS was > 100 µM in each case.

For the compound `CC(=O)OCC1OC([Se-])C(OC(C)=O)C(OC(C)=O)C1OC(C)=O.N#CCC[PH+](CCC#N)CCC#N.[Au+]` (stereo not given), the GI50 with 786-0 renal was 6.3 µM; in the assay with SK-OV-3 ovarian it was 37.1 µM; in the assay on RPMI-8226 leukemia, 3.09 µM; with MALME-3M melanoma, 15 µM; in the assay on HOP-62 NSCLC it was 25.2 µM; with M14 melanoma, 3.63 µM. For the same compound, the GI50 is 9.81 µM in the assay with OVCAR-5 ovarian, 2.75 µM with MOLT-4 leukemia and 13.7 µM in the assay on SF-295 CNS. In addition, the TGI with 786-0 renal was 53.3 µM; with SK-OV-3 ovarian, > 94.6 µM; with RPMI-8226 leukemia, 14.4 µM; in the assay with MALME-3M melanoma, 48.3 µM; with HOP-62 NSCLC it was 68.8 µM; in the assay with M14 melanoma, 18.3 µM. Moreover, the TGI is 41.9 µM in the assay on OVCAR-5 ovarian, 14.1 µM in the assay with MOLT-4 leukemia and 35.9 µM with SF-295 CNS.

With `CC(=O)Oc1ccc(Nn2c3ccccc3c3ccccc32)c(C)c1`, the TGI with 786-0 renal was 41.7 µM; in the assay with SK-OV-3 ovarian, > 100 µM; in the assay with RPMI-8226 leukemia, 58.5 µM; in the assay with MALME-3M melanoma, > 100 µM; in the assay on HOP-62 NSCLC, > 100 µM; in the assay with M14 melanoma, 74.3 µM. Also, the TGI in the assay on OVCAR-5 ovarian is > 100 µM; in the assay with MOLT-4 leukemia it was 77.7 µM; in the assay with SF-295 CNS it was 73.7 µM.

On to `Cn1c2cc([N+](=O)[O-])ccc2c(=O)c2c(O)cc3c(c21)C=CC(C)(C)O3`, for which the TGI in the assay on 786-0 renal is > 100 µM; with SK-OV-3 ovarian, 87.8 µM; in the assay with RPMI-8226 leukemia, > 100 µM; in the assay with MALME-3M melanoma it was > 100 µM; in the assay on A498 renal, > 100 µM; in the assay with M14 melanoma, > 100 µM. In addition, the values for the TGI in the assay with OVCAR-5 ovarian, with MOLT-4 leukemia and in the assay with SF-295 CNS were 80.4 µM, > 100 µM and 47.1 µM, respectively.

In the case of `C=C1C(=O)c2cc3c(cc2C(c2cc(OC)c(OC)c(OC)c2)[C@@H]1C(=O)O)OCO3` (stereo not given in full), the TGI in the assay with 786-0 renal, in the assay with SK-OV-3 ovarian, in the assay on RPMI-8226 leukemia, in the assay on MALME-3M melanoma, with A498 renal and in the assay on M14 melanoma was > 100 µM each time. For the same compound, the TGI in the assay with MOLT-4 leukemia and in the assay with SF-295 CNS was > 100 µM throughout.
